# Results published in patent US10017768B2, “Method of treatment of chlamydial infections with selected EGFR inhibitors” (priority 2013, dated 2018).
# “Also recorded” adds a separate entry of the source.
# Legend:
# F-actin = assay: Organization of F-actin at the chlamydial inclusion periphery (confocal microscopy); format: cell-based, human; conditions: C. trachomatis 24 h
# Protocol: Immunofluorescence. Cells were infected with C. trachomatis as described above. The cells were washed 5 times with PBS and fixed at either 2.5 hpi or 24 hpi with 4% PFA for 10 min and blocked with 5% BSA for 1 h. After washing with TBS (50 mM Tris HCl, pH 7.4 and 150 mM NaCl) the cells were permeabilized for 15 min with 0.1% Triton X-100 and again washed with TBS followed by incubation with the indicated primary antibodies overnight. […] After repeated washings, the coverslips were mounted and analyzed using Zeiss LSM 510 or 710 laser scanning confocal microscope. For the studies shown in FIG. 1, Panel A, C. trachomatis inclusions were stained using the Pathfinder Chlamydia Culture Confirmation System (BioRad, Hercules, Calif., USA). At 24 h post C. trachomatis infection, cells were fixed with methanol for 10 min at room temperature and stained with the FITC conjugated pathfinder anti-chlamydial mAb according to the manufacturer's protocol (Bio-Rad, Hercules, Calif.). For the co-localization studies, 30,000 HeLa cells were seeded into EZ slide 4-well glass slides (Millipore, Temecula, Calif., USA) and infected with C. trachomatis as described above for 2.5 h the next day. Cells were fixed 24 h later in 4% formaldehyde in PBS for 15 min, permeabilized in 0.1% Triton X-100 for 10 min, and blocked in 1% BSA for 1 h at room temperature. […]
# C. trachomatis [1] = assay: Number, size and development of chlamydial inclusions in HeLa cells (confocal microscopy, ImageJ); format: cell-based, Chlamydia trachomatis strain D; conditions: for Inclusion size / Number of inclusions: C. trachomatis 24 h; for Inclusion development: total infection 24 h
# Protocol: Propagation of Chlamydia and infections. Chlamydia trachomatis strain D (C. trachomatis) was propagated in HeLa cells grown in complete DMEM containing cyclohexamide (2 μg/ml). After 48 h, infected cells were harvested in sucrose-phosphate-glutamate (SPG) buffer, ruptured by vortexing with 3 mm glass beads. EBs were purified using previously described methods. The resulting bacterial pellet was resuspended in cold SPG buffer with a 21 to 22-gauge injection needle and stored in aliquots at −80° C. For infection, chlamydial EBs were added to cells in monolayer (80% confluence) at a multiplicity of infection (MOI) of 2-10 for all studies included here. Centrifugation was not used during the infection.
# siRNA transfections. […] After 24 h, transfected cells were replated for a second round of transfection. After another 24 h, cells were infected with C. trachomatis and incubated for different time intervals (siRNA was maintained during the infection) according to the experimental design and were either stained for analyzing the inclusion development or prepared for Western blot analysis.
# (§1) EGFR inhibitor treatment. […] The cells were pretreated with Erlotinib (25 μM) for 2 h and then infected with C. trachomatis. […] The inhibitor concentration was maintained during the infection. In certain experiments in which protein phosphorylation was investigated (FIG. 1, Panels B, D, F and G, FIG. 2, FIG. 3 and FIG. 11) the cells were serum starved overnight before drug treatment and C. trachomatis infection. […] Infected samples were used either for Western blotting or confocal imaging as described below. In another set of experiments the cells were infected with C. trachomatis followed by addition of Erlotinib at 2.5, 5 and 18 hpi. The total time for C. trachomatis infection was 24 h after which the samples were used for Western blotting or confocal imaging.
# Immunofluorescence. Cells were infected with C. trachomatis as described above. The cells were washed 5 times with PBS and fixed at either 2.5 hpi or 24 hpi with 4% PFA for 10 min and blocked with 5% BSA for 1 h. After washing with TBS (50 mM Tris HCl, pH 7.4 and 150 mM NaCl) the cells were permeabilized for 15 min with 0.1% Triton X-100 and again washed with TBS followed by incubation with the indicated primary antibodies overnight. […] After repeated washings, the coverslips were mounted and analyzed using Zeiss LSM 510 or 710 laser scanning confocal microscope. For the studies shown in FIG. 1, Panel A, C. trachomatis inclusions were stained using the Pathfinder Chlamydia Culture Confirmation System (BioRad, Hercules, Calif., USA). At 24 h post C. trachomatis infection, cells were fixed with methanol for 10 min at room temperature and stained with the FITC conjugated pathfinder anti-chlamydial mAb according to the manufacturer's protocol (Bio-Rad, Hercules, Calif.). For the co-localization studies, 30,000 HeLa cells were seeded into EZ slide 4-well glass slides (Millipore, Temecula, Calif., USA) and infected with C. trachomatis as described above for 2.5 h the next day. Cells were fixed 24 h later in 4% formaldehyde in PBS for 15 min, permeabilized in 0.1% Triton X-100 for 10 min, and blocked in 1% BSA for 1 h at room temperature. […] The slides were mounted with Fluoromount mounting medium (Sigma Aldrich, St. Louis, Mo., USA), sealed, and examined using Zeiss 710 laser scanning confocal microscope.
# BAPTA/AM and Ionomycin treatment. Monolayers of HeLa cells were washed with PBS and replaced with calcium free DMEM+1% FBS and pretreated for 1 h with BAPTA/AM (15 μM) followed by C. trachomatis infection for 24 h. BAPTA/AM concentration was maintained during the C. trachomatis infection. The control cells were treated with DMSO (<0.1%) followed by 24 h of C. trachomatis infection. In another set of experiments, HeLa cells were infected with C. trachomatis followed by addition of BAPTA/AM (15 μM) or DMSO at 2 or 5 hpi. The total time for C. trachomatis infection was 24 h.
# [2] = test system: EGFR, PLCγ1, STAT5 and Akt; assay: Western blot of C. trachomatis-induced phosphorylation of EGFR and downstream effectors in HeLa cells; format: cell-based, human; conditions: 25 μM Erlotinib for 2 h followed by Ct infection for 2.5 h
# Protocol: (§2) Immunoblotting. Cells were harvested and lysed in modified RIPA buffer (50 mM Tris, 150 mM NaCl, 1% sodium deoxycholate, 1% NP-40, 1 mM sodium fluoride) supplemented with protease inhibitor cocktail and phosphatase inhibitor tablet (Roche). For Western blotting of C. trachomatis antigens, the C. trachomatis-infected cells were lysed in 20 mM HEPES buffer (pH 8.0) containing 8 M urea supplemented with protease inhibitors. Cell lysates were incubated on ice for 1 h and then sonicated briefly. The soluble protein fraction was collected by centrifugation at 10,000 rpm. Total protein was estimated using the BCA method and equal amounts of proteins (10-20 μg) were processed for immunoblotting. Proteins were resolved on 10% SDS polyacrylamide gel and transferred onto a nitrocellulose membrane. The blot was blocked using 3% BSA and incubated with the indicated antibodies. ECL was used to detect the proteins according to the manufacturer's instructions.
# EGFR inhibitor treatment. […] The cells were pretreated with Erlotinib (25 μM) for 2 h and then infected with C. trachomatis. […] The inhibitor concentration was maintained during the infection. In certain experiments in which protein phosphorylation was investigated (FIG. 1, Panels B, D, F and G, FIG. 2, FIG. 3 and FIG. 11) the cells were serum starved overnight before drug treatment and C. trachomatis infection. […]
# chlamydial EBs = assay: Control experiment: viability of elementary bodies (EBs) treated with Erlotinib and Cetuximab (Hsp60 Western blot); format: cell-based, Chlamydia trachomatis strain D; conditions: EBs with Erlotinib 25 μM or Cetuximab 20 μg/ml for 2.5 h, HeLa infection 24 h
# From the text: Control experiments. […] EB pellets were washed and resuspended in SPG buffer and used for subsequent HeLa cell infection. At 24 hpi cells were lysed for Western blotting of chlamydial Hsp60 antigen.
# HeLa cells = assay: Cell viability assay (MTT); format: cell-based, human; conditions: 25 μM Erlotinib for 24 h
# Protocol: Cell proliferation assay. To ensure that the dose of Erlotinib (25 μM) provided maximal inhibition without affecting cell viability, MTT assays were performed. HeLa cells were cultured for 24 h, treated with 25 μM Erlotinib and incubated at 37° C., 5% CO2 for 24 h. After washing the cells, the procedure for cell viability assay was followed as per manufacturer's instructions (Roche).
# chlamydial Hsp60 = assay: Western blot analysis of chlamydial Hsp60 in infected HeLa cells; format: cell-based, Chlamydia trachomatis strain D
# Protocol: as §2, §1
# intracellular calcium = assay: Intracellular calcium staining (fluorescence microscopy) in HeLa cells; format: cell-based, human
# Protocol: Intracellular calcium staining. Cells were washed with calcium free incomplete DMEM and incubated with 2 μM Fluo-4 AM diluted in Ca^2++ free incomplete DMEM at 37° C. for 30 min. The cells were then washed with Ca^2++ free HBSS and analyzed for calcium levels using an Olympus IX71 fluorescence microscope.
# BAPTA/AM and Ionomycin treatment. Monolayers of HeLa cells were washed with PBS and replaced with calcium free DMEM+1% FBS and pretreated for 1 h with BAPTA/AM (15 μM) followed by C. trachomatis infection for 24 h. BAPTA/AM concentration was maintained during the C. trachomatis infection. The control cells were treated with DMSO (<0.1%) followed by 24 h of C. trachomatis infection. In another set of experiments, HeLa cells were infected with C. trachomatis followed by addition of BAPTA/AM (15 μM) or DMSO at 2 or 5 hpi. The total time for C. trachomatis infection was 24 h. To induce mobilization of calcium from intracellular stores to the cytoplasm, cultured cells were pretreated for 1 h with 1 μg/ml Ionomycin before chlamydial infection. C. trachomatis-infected cells were washed three times with PBS after 24 hpi and processed for immunofluorescence as described above.
# C. trachomatis [3] = assay: Inside out staining: chlamydial attachment and entry into the host cell; format: cell-based, Chlamydia trachomatis strain D; conditions: HeLa cells, C. trachomatis 2.5 h
# Protocol: Inside out staining. Differential staining of external and internalized bacteria was performed as described previously and using three independent studies. Briefly, cells were grown overnight in 2-well Lab-Tek chamber slides and treated with either EGFR inhibitors or siRNA as described above and subsequently infected with Chlamydia for 2.5 h at 37° C. to allow for bacterial attachment and internalization. […] Infected cells were washed five times in PBS and fixed in 1% paraformaldehyde (PFA). After fixation, cells were blocked in 5% BSA for 1 h and then incubated with FITC-conjugated antibody against chlamydial EBs for 1 h to stain external EBs. Cells were then permeabilized with 0.1% Triton X-100, blocked again, and incubated with antibody against chlamydial LPS followed by incubation with rhodamine-conjugated anti-goat antibody to stain intracellular and extracellular EBs. Imaging was performed using confocal microscopy (Carl Zeiss, Germany). The quantification for the inside out experiments was performed manually based on the number of attached EBs observed per infected cell. The statistical analysis was based on imaging data collected from fifteen fields containing 3-10 cells per field as described below.
# Similarly, fifteen random fields (3-10 cells per field) were used for the inside out experiments. All results are presented as mean±SEM. […]
# C. trachomatis [4] = assay: Transmission electron microscopy of HeLa cells infected with C. trachomatis; format: cell-based, Chlamydia trachomatis strain D; conditions: C. trachomatis 24 h, vs respective controls
# Protocol: Transmission electron microscopy. HeLa cells were infected with C. trachomatis as described above. […] The cells were then washed and post-fixed for 1 h in 1% osmic acid in 0.1 N Millonig's buffer followed by 1 h treatment with 1% uranyl acetate. […] Thin sections were then cut with a Reichert ultracut E microtome and stained with 1% uranyl acetate and Reynold's lead citrate solutions, followed by the analysis using 80 kV Tecnai Spirit BioTwin transmission electron microscope.
# [5] = HeLa cells pre-treated with BAPTA/AM 15 μM for 1 h, calcium free DMEM
# [6] = HeLa cells treated before infection (Erlotinib 25 μM, Cetuximab 20 μg/ml or siRNA), vs DMSO, IgG or control siRNA
structure (smiles),measurement,setting,value
CC(=O)OCOC(=O)CN(CC(=O)OCOC(C)=O)c1ccccc1OCCOc1ccccc1N(CC(=O)OCOC(C)=O)CC(=O)OCOC(C)=O [BAPTA/AM],Assembly of F-actin at the inclusion periphery,F-actin; HeLa cells pre-treated with BAPTA/AM for 1 h,diffused assembly of F-actin at the inclusion periphery
same,Inclusion size,C. trachomatis [1]; [5],significant decrease; also recorded: significantly reduced
same,Number of inclusions,C. trachomatis [1]; [5],significant decrease; also recorded: significantly reduced
same,Inclusion development,"C. trachomatis [1]; HeLa cells, BAPTA/AM 15 μM added at 2 or 5 hpi, vs DMSO",Impaired inclusion formation; also recorded: impaired inclusion development
C#Cc1cccc(Nc2ncnc3cc(OCCOC)c(OCCOC)cc23)c1 [Erlotinib],EGFR phosphorylation induced by Ct infection,[2],an increase in EGFR phosphorylation upon Ct infection in the absence of Erlotinib but not in the presence of the drug
same,Chlamydial Hsp60 antigen load in cells infected with drug-treated vs untreated EBs (EB viability),chlamydial EBs,comparable; also recorded: no difference
same,Viability of HeLa cells,HeLa cells,did not reduce the viability; also recorded: did not affect the viability
same,Assembly of F-actin at the inclusion periphery,F-actin; HeLa cells with EGFR inhibition,altered
same,Inclusion size,C. trachomatis [1]; [6],Significant reduction
same,Number of inclusions,C. trachomatis [1]; [6],significantly reduced
same,Inclusion development,"C. trachomatis [1]; HeLa cells, Erlotinib added at 2.5 hpi",impaired regular inclusion formation and resulted in formation of numerous bacterial aggregates; also recorded: incomplete inclusion development and bacterial aggregates
same,Inclusion development,"C. trachomatis [1]; HeLa cells, Erlotinib added at 5 hpi",impaired regular inclusion formation and resulted in formation of numerous bacterial aggregates; also recorded: incomplete inclusion development and bacterial aggregates
same,Inclusion development,"C. trachomatis [1]; HeLa cells, Erlotinib added at 18 hpi",did not significantly affect; also recorded: Well-developed C. trachomatis inclusions
same,Chlamydial Hsp60 levels,"chlamydial Hsp60; HeLa cells treated before infection, C. trachomatis 2.5 h",significant (P<0.001) reduction
same,Chlamydial Hsp60,"chlamydial Hsp60; HeLa cells, Erlotinib 25 μM added at 2.5 hpi, total infection 24 h",Significantly lower expression; also recorded: Significant decrease
same,Chlamydial Hsp60 antigen,"chlamydial Hsp60; HeLa cells, Erlotinib 25 μM followed by Ct infection for 24 h",marked decrease
same,Calcium signal in C. trachomatis-infected cells (Fluo-4 AM),"intracellular calcium; Erlotinib added at 2.5 and 5 hpi, stained at 24 hpi",significant drop in calcium signal; also recorded: weak calcium signal
same,"Chlamydial binding to the host cell surface (cell-associated bacteria, external+internalized)",C. trachomatis [3],Significant reduction
same,Inclusion morphology by transmission electron microscopy,C. trachomatis [4],small inclusions; also recorded: smaller and less mature
C[C@H](CCC(=O)O)C[C@H](C)C[C@H](C)C(=O)/C=C(\O)[C@H](C)C[C@H](C)C/C=C/[C@@H](C)[C@@H](O)[C@@H](C)[C@@H](O)C[C@@H]1CC[C@@](C)([C@H]2CC[C@@](C)([C@@H](C)O)O2)O1 [Ionomycin],Inclusion formation in EGFR siRNA treated cells with or without Ionomycin,"C. trachomatis [1]; HeLa cells, EGFR siRNA, Ionomycin 1 μg/ml 1 h pre-treatment, Ct 24 h",not able to rescue; also recorded: no significant difference
same,Intracellular free calcium (Fura-2/AM),intracellular calcium; Ionomycin 1 μg/ml for 1 h,Increased intracellular free calcium
